{
  "source": "patent US12492163B2",
  "about": "“9H-fluorene derivatives or their pharmaceutically acceptable salts” (priority 2020, dated 2025)",
  "key": {"[1]": {"assay": "Pharmacokinetic parameters in plasma and brain of mice", "type": "in vivo", "description": "(§1) The research was carried out at the Department of Toxicology and Military Pharmacy, Faculty of Military Health Sciences in Hradec Kralove, Defense University in Brno in the Czech Republic, at the Biomedical Research Center and at the Department of Clinical Biochemistry of the University Hospital Hradec Kralove in the Czech Republic. All procedures were carried out under the supervision of the Ethics Committee of the Faculty of Military Health Sciences (No. 20/19; MO 215611/2019-684800). Male and female ICR-CD1 strain of domestic mice (Mus musculus) (body weight approx. 20-25 g) were used in the research. The animals were kept in standard, appropriately sized cages, divided into groups of a maximum of 8 animals. The animals in the test groups were administered the test compound intraperitoneally (doses in the acute toxicity study: 10, 20, 40 and 60 mg/kg, dose in the study of pharmacokinetic parameters 10 mg/kg). Control groups received 1% Tween 80.\nAfter administration of compound JT-3 at the MTD dose (10 mg/kg), animals were subjected to deep terminal sedation at 0, 3, 5, 10, 20, 30, 45, 60, 90, 120, 240 and 360 minutes after dosing (six animals per time interval; n=6) and their blood was drawn by cardiac puncture into heparinized tubes. Samples were centrifuged (3000×g, 10 minutes, 10° C.). Plasma was stored at −80° C. until analyzed by HPLC. Blood in the cerebral vessels would interfere with the actual concentration levels in the brain tissue, therefore the animals were perfused transcardially with physiological saline (0.9% NaCl) for 5 minutes (10 mL/min). After perfusion, the skull was opened and the brain was carefully removed and stored at −80° C. until analyzed by HPLC.\nQuantitative analyzes of JT-3 in plasma and brain were performed by HPLC. The method has been fully validated for plasma and partially validated for brain homogenate according to the EMA and FDA guidelines for the validation of bioanalytical methods [Research, C, Anonymous]."}, "mGAT2": {"target": "mGAT2 (Mus musculus (Mouse), UniProt P31651)", "sequence (P31651 whole entry)": "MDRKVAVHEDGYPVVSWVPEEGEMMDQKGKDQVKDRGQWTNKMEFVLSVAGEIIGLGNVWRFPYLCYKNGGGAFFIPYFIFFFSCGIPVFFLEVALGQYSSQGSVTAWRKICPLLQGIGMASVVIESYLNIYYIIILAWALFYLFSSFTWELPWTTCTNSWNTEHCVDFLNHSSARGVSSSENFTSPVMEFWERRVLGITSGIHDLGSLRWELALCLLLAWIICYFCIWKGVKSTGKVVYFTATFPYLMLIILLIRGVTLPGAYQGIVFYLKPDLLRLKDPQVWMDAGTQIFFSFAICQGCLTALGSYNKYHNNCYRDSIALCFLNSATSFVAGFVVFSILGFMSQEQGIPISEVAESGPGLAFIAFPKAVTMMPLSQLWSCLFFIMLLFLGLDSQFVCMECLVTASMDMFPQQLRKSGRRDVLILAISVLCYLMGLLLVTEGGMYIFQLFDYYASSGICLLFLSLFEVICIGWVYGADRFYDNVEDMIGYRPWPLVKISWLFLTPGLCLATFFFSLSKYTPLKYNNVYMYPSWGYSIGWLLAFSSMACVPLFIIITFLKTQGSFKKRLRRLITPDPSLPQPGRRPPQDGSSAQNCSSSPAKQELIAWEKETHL", "assay": "[3H]GABA uptake inhibition, mGAT2 in HEK293 cells", "type": "cell-based", "settings": "inhibitor at 100 μM; remaining reuptake", "description": "Exemplary compounds according to the invention were screened at the Ludwig-Maximilian University of Munich to determine the inhibitory ability towards four mouse GAT transporters (mGAT1-mGAT4). […] The biological material was stably transfected human embryonic kidney HEK293 cells, expressing genes to the appropriate transporters. The generated radioactivity was measured with a liquid scintillation counter. […] These determinations were made according to the procedure described in detail in A. Kragler, G. Höfner, K. T. Wanner, Novel parent structures for inhibitors of the murine GABA transporters mGAT3 and mGAT4, Eur. J. Pharmacol. 519 (2005) 43-47."}, "ICR-CD1 mice": {"test_system": "ICR-CD1 mice", "assay": "Acute toxicity study in mice", "type": "in vivo, Mus musculus", "parameters": "key to Tremor / Convulsions / Hyper/Hypoventilation / Drooping eyelids / General exhaustion: mild (+); moderate (++); severe (+++)", "description": "as §1\nThe study assesses the toxicity profile of the compound by observation of emerging adverse effects, biochemical parameters analysis and histopathological analysis, and determines the maximum tolerated dose (MTD). Mice were randomly assigned to experimental groups consisting of two males and two females. […] Toxic symptoms were classified as in the previous published study [J. Misik]. Weight loss or reduction in food consumption was assessed according to the FELAS classification [K. L. Chapman] for the first two hours, and then periodically for the next 46 hours. All 48-hour survivors were euthanized. Blood was collected for biochemical analysis and selected organs (kidneys and liver) were collected for histopathological examination. Venous blood was collected in heparinized tubes. Plasma was then separated (3000×g, 5 min, 4° C.) using a centrifuge. The concentration of urea and creatinine as well as the activity of alanine aminotransferase (ALT), aspartate aminotransferase (AST), alkaline phosphatase (ALP), amylase and lactate dehydrogenase (LDH) were determined in an accredited biochemical laboratory. The harvested organs: liver and kidneys were used for standard histopathological examination. Organs were fixed with 10% neutral buffered formalin, processed for histology, and stained with hematoxylin and eosin as in a previous published study [J. Pejchal]. Histopathological changes were assessed microscopically."}, "[2]": {"settings": "10 mg/kg (MTD) i.p., mouse Female1"}, "[3]": {"settings": "10 mg/kg (MTD) i.p., mouse Female2"}, "[4]": {"settings": "10 mg/kg (MTD) i.p., mouse Male1"}, "[5]": {"settings": "10 mg/kg (MTD) i.p., mouse Male2"}, "[6]": {"settings": "plasma, 10 mg/kg (MTD) i.p., 48 h"}},
  "data": [
    {"molecule": "O[C@H](CNCC1CC1)[C@H](Cc1ccccc1)NC1c2ccccc2-c2ccccc21", "note": "[JT-3, (2R,3S)-3-((9H-fluoren-9-yl)amino)-1-((cyclopropylmethyl)amino)-4-phenylbutan-2-ol]", "values": [
      {"measurement": "Vz", "setting": "[1]; both, ICR-CD1, mouse, in vivo, ip, 10 mg/kg", "result": "40.93 ± 4.95", "unit": "L/kg"},
      {"measurement": "Tmax", "setting": "[1]; brain, mice, 10 mg/kg i.p.", "result": "0.9167 ± 0.113", "unit": "h"},
      {"measurement": "time of maximum concentration after administration", "setting": "[1]; mice, 10 mg/kg i.p.", "result": 60, "unit": "min"},
      {"measurement": "penetration into the brain", "setting": "[1]; mice, 10 mg/kg i.p., higher concentrations in the CNS than in plasma", "result": "Very good penetration"},
      {"measurement": "Half-life", "setting": "[1]; plasma, elimination phase, mice, 10 mg/kg i.p.", "result": "2.6907 ± 0.2375", "unit": "h"},
      {"measurement": "Cmax", "setting": "[1]; plasma, mice, 10 mg/kg i.p.", "result": "430.09 ± 57.94", "unit": "ng/mL"},
      {"measurement": "MRT", "setting": "[1]; plasma, mice, 10 mg/kg i.p.", "result": "3.6183 ± 0.2942", "unit": "h"},
      {"measurement": "Tmax", "setting": "[1]; plasma, mice, 10 mg/kg i.p.", "result": "0.3888 ± 0.0828", "unit": "h"},
      {"measurement": "λz (terminal phase rate constant)", "setting": "[1]; plasma, mice, 10 mg/kg i.p.", "result": "0.0045 ± 0.0004", "unit": "min⁻¹"},
      {"measurement": "Cmax", "setting": "[1]; sexes, ICR-CD1, mouse, in vivo, ip, 10 mg/kg", "result": "833 ± 62.3", "unit": "ng/g"},
      {"measurement": "percentage of [3H]GABA reuptake retained, mGAT2", "setting": "mGAT2", "result": 51, "unit": "%"},
      {"measurement": "changes in biochemical parameters (urea, creatinine, liver enzymes, ALP, amylase, LDH) compared to control", "setting": "ICR-CD1 mice; 10 mg/kg (MTD) i.p.", "result": "no statistically significant changes"},
      {"measurement": "histopathological changes (liver, kidneys)", "setting": "ICR-CD1 mice; 10 mg/kg (MTD) i.p.", "result": "only sporadic infiltration of neutrophils into the liver and adipose tissue was observed in two animals, without any signs of liver or kidney damage"},
      {"measurement": "Body weight change at 24 h (%)", "setting": "ICR-CD1 mice; [2]", "result": "−3.9", "unit": "%"},
      {"measurement": "Body weight change at 48 h (%)", "setting": "ICR-CD1 mice; [2]", "result": "−0.4", "unit": "%"},
      {"measurement": "Drooping eyelids", "setting": "ICR-CD1 mice; [2]", "result": "+"},
      {"measurement": "General exhaustion", "setting": "ICR-CD1 mice; [2]", "result": "+"},
      {"measurement": "Hyper/Hypoventilation", "setting": "ICR-CD1 mice; [2]", "result": "+"},
      {"measurement": "Tremor", "setting": "ICR-CD1 mice; [2]", "result": "+"},
      {"measurement": "Body weight change at 24 h (%)", "setting": "ICR-CD1 mice; [3]", "result": "−5.8", "unit": "%"},
      {"measurement": "Body weight change at 48 h (%)", "setting": "ICR-CD1 mice; [3]", "result": "−5.2", "unit": "%"},
      {"measurement": "Convulsions", "setting": "ICR-CD1 mice; [3]", "result": "+"},
      {"measurement": "Drooping eyelids", "setting": "ICR-CD1 mice; [3]", "result": "+"},
      {"measurement": "General exhaustion", "setting": "ICR-CD1 mice; [3]", "result": "+"},
      {"measurement": "Hyper/Hypoventilation", "setting": "ICR-CD1 mice; [3]", "result": "+"},
      {"measurement": "Tremor", "setting": "ICR-CD1 mice; [3]", "result": "++"},
      {"measurement": "Body weight change at 24 h (%)", "setting": "ICR-CD1 mice; [4]", "result": "−1.3", "unit": "%"},
      {"measurement": "Body weight change at 48 h (%)", "setting": "ICR-CD1 mice; [4]", "result": "−2.4", "unit": "%"},
      {"measurement": "General exhaustion", "setting": "ICR-CD1 mice; [4]", "result": "+"},
      {"measurement": "Hyper/Hypoventilation", "setting": "ICR-CD1 mice; [4]", "result": "+"},
      {"measurement": "Tremor", "setting": "ICR-CD1 mice; [4]", "result": "+"},
      {"measurement": "Body weight change at 24 h (%)", "setting": "ICR-CD1 mice; [5]", "result": "−1.2", "unit": "%"},
      {"measurement": "Body weight change at 48 h (%)", "setting": "ICR-CD1 mice; [5]", "result": "−0.7", "unit": "%"},
      {"measurement": "General exhaustion", "setting": "ICR-CD1 mice; [5]", "result": "+"},
      {"measurement": "Hyper/Hypoventilation", "setting": "ICR-CD1 mice; [5]", "result": "+"},
      {"measurement": "Tremor", "setting": "ICR-CD1 mice; [5]", "result": "+"},
      {"measurement": "maximum tolerated dose (MTD)", "setting": "ICR-CD1 mice; mice, i.p., doses tested 10, 20, 40 and 60 mg/kg", "result": 10, "unit": "mg/kg"},
      {"measurement": "ALP", "setting": "ICR-CD1 mice; [6]", "result": "68.4 ± 27.2", "unit": "U/L"},
      {"measurement": "ALT", "setting": "ICR-CD1 mice; [6]", "result": "29.0 ± 6.5", "unit": "U/L"},
      {"measurement": "AST", "setting": "ICR-CD1 mice; [6]", "result": "56.8 ± 6.6", "unit": "U/L"},
      {"measurement": "Amylase", "setting": "ICR-CD1 mice; [6]", "result": "2955 ± 501", "unit": "U/L"},
      {"measurement": "LDH", "setting": "ICR-CD1 mice; [6]", "result": "275 ± 94", "unit": "U/L"},
      {"measurement": "Urea", "setting": "ICR-CD1 mice; [6]", "result": "33.8 ± 8.2", "unit": "mg/dL"}
    ]}
  ]
}
